Results published in PMC5294771, “Antidiabetic effects of Brucea javanica seeds in type 2 diabetic rats” (BMC Complementary and Alternative Medicine, 2017).
Where two headings read alike, the source gives them in different places. Marks after values point to notes of the source that are not given here. Blank lines part the entries; values can stand above or below the molecule they belong to.

Key:
[1] = biological target: T1, glycogen phosphorylase α (GP-α) (Oryctolagus cuniculus, UniProt P00489); experiment: GP-α inhibition assay; format: biochemical
T1 sequence (P00489 2-843 limits assumed): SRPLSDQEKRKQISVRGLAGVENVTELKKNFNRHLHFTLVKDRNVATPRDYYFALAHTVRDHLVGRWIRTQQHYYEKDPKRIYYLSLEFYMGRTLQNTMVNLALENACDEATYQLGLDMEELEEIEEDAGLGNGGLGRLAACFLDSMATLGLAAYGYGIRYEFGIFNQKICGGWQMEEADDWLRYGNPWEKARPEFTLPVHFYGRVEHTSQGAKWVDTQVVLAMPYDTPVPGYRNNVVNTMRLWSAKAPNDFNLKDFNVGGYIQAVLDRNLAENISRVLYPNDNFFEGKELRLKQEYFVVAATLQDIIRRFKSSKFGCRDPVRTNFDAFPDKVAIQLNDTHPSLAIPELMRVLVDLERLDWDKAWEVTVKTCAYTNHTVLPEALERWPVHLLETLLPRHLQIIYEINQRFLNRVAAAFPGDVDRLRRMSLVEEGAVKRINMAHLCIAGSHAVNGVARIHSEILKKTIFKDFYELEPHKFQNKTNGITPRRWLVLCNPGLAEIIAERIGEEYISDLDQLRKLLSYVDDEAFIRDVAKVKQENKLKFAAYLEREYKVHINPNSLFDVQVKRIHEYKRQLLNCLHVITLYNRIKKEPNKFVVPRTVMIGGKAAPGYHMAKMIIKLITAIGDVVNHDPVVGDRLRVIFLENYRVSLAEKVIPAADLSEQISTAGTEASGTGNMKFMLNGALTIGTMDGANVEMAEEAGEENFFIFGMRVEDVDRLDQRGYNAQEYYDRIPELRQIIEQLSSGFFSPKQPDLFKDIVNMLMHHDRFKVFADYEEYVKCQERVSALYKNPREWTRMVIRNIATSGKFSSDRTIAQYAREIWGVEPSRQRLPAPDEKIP

[2] = biological target: α-glucosidase (Saccharomyces cerevisiae, UniProt P53341); experiment: α-glucosidase inhibition assay (pNPG); format: biochemical
α-glucosidase, sequence (P53341 whole entry): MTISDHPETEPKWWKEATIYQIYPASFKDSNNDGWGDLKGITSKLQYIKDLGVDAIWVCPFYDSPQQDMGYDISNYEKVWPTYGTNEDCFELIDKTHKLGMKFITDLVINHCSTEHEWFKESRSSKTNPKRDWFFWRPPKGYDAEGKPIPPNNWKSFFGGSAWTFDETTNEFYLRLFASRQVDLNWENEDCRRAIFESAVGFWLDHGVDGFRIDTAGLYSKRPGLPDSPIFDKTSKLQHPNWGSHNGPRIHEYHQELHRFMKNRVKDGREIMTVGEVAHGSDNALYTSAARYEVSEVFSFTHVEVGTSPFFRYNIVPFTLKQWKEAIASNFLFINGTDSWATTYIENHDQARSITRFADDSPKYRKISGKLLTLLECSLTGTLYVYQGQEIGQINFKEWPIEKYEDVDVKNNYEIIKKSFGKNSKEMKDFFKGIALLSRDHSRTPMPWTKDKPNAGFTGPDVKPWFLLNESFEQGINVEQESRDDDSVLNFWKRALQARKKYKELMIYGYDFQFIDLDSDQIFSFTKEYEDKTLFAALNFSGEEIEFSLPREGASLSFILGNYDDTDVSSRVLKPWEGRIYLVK
Protocol: The fractions from B. javanica seeds were evaluated as GP-α inhibitors and were further tested for their α-glucosidase inhibitory activity as described previously. Briefly, 50 μL of samples or standard were mixed with 100 μL of α-glucosidase (0.1 U/mL) in phosphate buffer (0.1 M, pH 6.9) and incubated at 37 °C for 10 min. The reactions were initiated by addition of p-Nitrophenyl α-D-Glucoside (p-NPG, 50 μL) in phosphate buffer (0.1 M, pH 6.9) and incubated again at 37 °C for 30 min. The reactions were terminated using NaCO3 (1 M, 50 μL). […] Phosphate buffer (50 μL) was used as control. Blank readings (without substrate) were subtracted from specific sample wells and the percentage of α-Glucosidase inhibition (αGI) was calculated as following formula: αGI (%) = [(Acontrol – Asample)/Acontrol] × 100 [22].
α-glucosidase inhibition activity of isolated compounds were determined according to the method described in section 2.3 and GP-α inhibition activity was measured according to our previously reported method.

[3] = system: nondiabetic mice; conditions: 1 mg/kg b.w., 0-8 h screening; cited from earlier work
[4] = system: STZ-induced diabetic rats; conditions: 1 mg/kg b.w., 0-8 h screening; cited from earlier work
[5] = system: NA-STZ induced type 2 diabetic (T2D) rats; experiment: Fasting blood glucose levels in NA-STZ T2D rats, 28-day oral treatment; format: in vivo, Sprague Dawley (SD) rats; conditions: for Fasting blood glucose level: 10 mg/kg/day b.w. oral
Protocol: The experimental rats were fasted overnight (16 h) and diabetes was induced by single intraperitoneal (i.p) injection of STZ (60 mg/kg b.w.) freshly prepared in 0.1 M citrate buffer (pH 4.5) 15 min after i.p injection of NA (100 mg/kg b.w.) dissolved in normal saline. Diabetes was confirmed 3 weeks after NA-STZ induction by measuring tail vein blood glucose levels using glucose meter (Accu-check Performa, Rochi diagnostic, USA). The rats having blood glucose levels higher than 11 mmol/L were considered as diabetic and selected for study.
The experimental rats were divided into 5 groups (n = 6; 3 M/3 F) as following. Group I: non-diabetic control (NDC) and Group II: diabetic control (DC) consisted of rats were allowed to free access of water; Group III and IV were treated orally with EAF (25 and 50 mg/kg/day b.w.) diluted in distilled water, Group V was treated orally with Glibenclamide (10 mg/kg/day b.w.) and served as standard drug. All groups except group 1 are diabetic. The selected doses (25 and 50 mg/kg/day b.w) were based on prior acute oral toxicity study.
(§1) After diabetes was confirmed, rats were divided into specific groups which were mentioned in the section of treatment protocol above. Fasting blood glucose (FBG) levels and body weight of rats were measured and it was considered as 0 day. The extracts and standard drug were administered orally on a daily base in single dose for 28 days. At the end of each week, animals were fasted overnight and body weights were recorded using electronic balance. Blood samples were obtained from the tail vein of the rats by Accu-Chek FastClix lancing device and blood glucose levels were analysed using glucose meter (Accu-check, Roche Diagnostics, USA).

[6] = Body weights in T2D rats; format: in vivo, Sprague Dawley (SD) rats; conditions: 10 mg/kg/day b.w. oral
Protocol: as §1

[7] = system: NA-STZ induced type 2 diabetic (T2D) rats; experiment: Oral glucose tolerance test (OGTT) in T2D rats; format: in vivo, Sprague Dawley (SD) rats; conditions: 10 mg/kg
Protocol: On the 25th day of treatment, the OGTT was carried out according to the previously reported method. All animals were fasted overnight (16 h) before commencing the experiments. Group I (non-diabetic control) and Group II (diabetic control) weretreated with distilled water, Group III and Group IV were given EAF (25 and 50 mg/kg b.w), and Group V was given glibenclamide (10 mg/kg b.w.) using oral gavage, respectively. After 30 min, α-D-glucose (2 g/kg b.w.) was administered orally into all groups of rats. Blood samples were collected from the tail vein at 0 (immediately after glucose load), 30, 60, 90, and 120 min, and blood glucose levels were determined by glucose oxidase method using a commercial glucose meter (Roche, USA). […] AUCglucose=C1+C2/2×t2−t1
Where, C1 and C2 are concentrations of glucose at different time points; t1 and t2 are different tested time points.

[8] = system: NA-STZ induced type 2 diabetic (T2D) rats; experiment: Serum insulin levels and HOMA-IR in T2D rats; format: in vivo, Sprague Dawley (SD) rats; conditions: 10 mg/kg, 4 weeks, not significant
Protocol: (§2) At the end of study period, rats were fasted overnight, anesthetized, and the blood sample was collected by cardiac puncture. At the end, the rats were sacrificed by cervical dislocation. The blood sample was centrifuged 2000 x g for 15 minute at 4 °C, serum was collected and stored at −80 °C until analyses. The liver was carefully removed, washed in ice-cold phosphate buffered saline (PBS, pH 7.4) to remove the blood. A piece of liver sample was rinsed in liquid nitrogen, stored at −80 °C for glycogen assay.
The serum insulin levels were quantified by using rat insulin ELISA kit (Mercodia AB, Uppsala, Sweden) according to the manufacturer’s instructions. Insulin resistance (IR) was calculated according to the homeostasis model assessment by using the following equation [24] HOMA−IR=glucosemmol/L×insulinμU/mL/22.5

[9] = system: NA-STZ induced type 2 diabetic (T2D) rats; experiment: Serum lipid profiles in T2D rats; format: in vivo, Sprague Dawley (SD) rats; conditions: 10 mg/kg, 4 weeks
Protocol: as §2
(§3) The levels of serum total cholesterol (TC), triglycerides (TG), low density lipoprotein cholesterol (LDL-C), and high density lipoprotein cholesterol (HDL-C), total protein, alkaline phosphatase (ALP), alanine aminotransferase (ALT), aspartate aminotransferase (AST), urea, creatinine were analyzed using automatic biochemical analyzer (Beckman-700, Fullerton, CA, USA)

[10] = system: NA-STZ induced type 2 diabetic (T2D) rats; experiment: Liver and renal function markers in T2D rats; format: in vivo, Sprague Dawley (SD) rats; conditions: 10 mg/kg b.w., 4 weeks, serum
Protocol: as §2, §3

[11] = system: NA-STZ induced type 2 diabetic (T2D) rats; experiment: Serum MDA and GSH levels in T2D rats; format: in vivo, Sprague Dawley (SD) rats; conditions: 10 mg/kg
Protocol: as §2
The malondialdehyde (MDA), a byproduct of lipid peroxidation, and glutathione (GSH), a marker of antioxidant defense, were quantified by commercial kit (Cayman chemical company, Ann Arbor, MI, USA) according to the manufacturer’s instructions.

[12] = system: NA-STZ induced type 2 diabetic (T2D) rats; experiment: Serum cytokine levels (ELISA) in T2D rats; format: in vivo, Sprague Dawley (SD) rats; conditions: 10 mg/kg b.w.
Protocol: as §2
The quantification of cytokine in the serum was assessed by enzyme-linked immunosorbent assay (ELISA) using commercial kits for rat TNF-α, rat IL-6, and rat IL-1β (eBioscience, San Diego, CA USA) according to the manufacturer’s instructions.

[13] = system: NA-STZ induced type 2 diabetic (T2D) rats; experiment: Liver glycogen contents in T2D rats; format: in vivo, Sprague Dawley (SD) rats; conditions: 10 mg/kg b.w.
Protocol: as §2
The glycogen contents in the liver were measured using a glycogen assay kit (Ann Arbor, MI, USA) according to the manufacturer’s instructions.

[14] = isolated compounds, read-out: Glycogen phosphorylase α IC50

SMILES: O=c1cc(-c2ccc(O)c(O)c2)oc2cc(O)cc(O)c12 [Compound 5, luteolin]
IC50 [1, 14]: 45.08 ± 0.04 µM
GP-α inhibitory potency relative to caffeine ([1]; vs caffeine): 10 fold
α-glucosidase inhibitory potency relative to acarbose ([2]; vs acarbose): 5.5 fold

IC50 [1, 14]: 357.88 ± 0.07 µM
SMILES: O=C(O)c1ccc(O)cc1 [Compound 4, Para-hydroxybenzoic acid]

SMILES: COc1cc(C(=O)O)ccc1O [Compound 1, vanillic acid]
GP-α inhibition [1]: no inhibition
inhibition at 12000 µM ([1]; at 12 mM): 22.9%
α-glucosidase inhibition [2]: no inhibition
α-glucosidase inhibition ([2]; concentrations tested up to 6 mM): did not inhibit

SMILES: CC1=C[C@H](O)[C@@H](O)[C@]2(C)[C@H]3[C@@H](O)[C@H](O)[C@@]4(C)OC[C@@]35[C@@H](C[C@@H]12)OC(=O)[C@H](O)[C@]54O [Compound 3, bruceine E]
GP-α inhibition [1]: no inhibition
inhibition at 5000 µM ([1]; at 5 mM, read-out: inhibitory activity against GP-α): 32.7%
α-glucosidase inhibition [2]: no inhibition
inhibition at 2500 µM ([2]; at 2.5 mM, read-out: inhibitory activity against α-glucosidase): 16.1%
blood glucose effect [3]: blood glucose lowering effect
blood glucose effect [4]: blood glucose lowering effect

SMILES: O=C(O)c1cc(O)c(O)c(O)c1 [Compound 7, gallic acid]
IC50 [1]: 214.38 ± 0.12 µM

SMILES: CC1=CC(=O)[C@@H](O)[C@]2(C)[C@H]3[C@@H](O)[C@H](O)[C@]4(C)OC[C@@]35[C@@H](C[C@@H]12)OC(=O)[C@H](O)[C@]54O [Compound 2, bruceine D]
GP-α inhibition [1]: no inhibition
α-glucosidase inhibition [2]: no inhibition
inhibitory activity against α-glucosidase ([2]; at 2.5 mM): 14.74%
blood glucose effect [3]: blood glucose lowering effect
blood glucose effect [4]: blood glucose lowering effect

IC50 [1, 14]: 297.37 ± 0.13 µM
SMILES: O=C(O)c1ccc(O)c(O)c1 [Compound 6, protocatechuic acid]

ALP [10]: 146.67 ± 10.50 U/L
Creatinine [10]: 29.00 ± 0.93 µmol/L
Urea [10]: 10.37 ± 1.80 mmol/L
SMILES: COc1ccc(Cl)cc1C(=O)NCCc1ccc(S(=O)(=O)NC(=O)NC2CCCCC2)cc1 [Glibenclamide, glibenclamide]
reduction of FBG levels compared to initial day ([5]; 10 mg/kg b.w. once a day for 28 days): 45.44%
Fasting blood glucose level ([5]; 0 Day): 16.90 ± 1.63 mmol/L
Fasting blood glucose level ([5]; Day 7): 17.63 ± 2.13 mmol/L
Fasting blood glucose level ([5]; Day 14): 12.97 ± 0.72 mmol/L
Fasting blood glucose level ([5]; Day 21): 11.83 ± 1.27 mmol/L
Fasting blood glucose level ([5]; Day 28): 9.22 ± 0.65^a mmol/L
Body Weight ([6]; 0 Day): 211.00 ± 6.19 g
Body Weight ([6]; Day 7): 203.50 ± 8.90 g
Body Weight ([6]; Day 14): 205.83 ± 7.31 g
Body Weight ([6]; Day 21): 206.00 ± 6.64 g
Body Weight ([6]; Day 28): 209.33 ± 7.91 g
decrease of AUC for glucose 0 to 120 min compared to DC group [7]: 57.42%
OGTT blood glucose reduction at 120 min compared to the values at 30 min ([7]; day 25, glucose 2 g/kg): 29.97%
increase of serum insulin compared to diabetic control group [8]: 16.5%
Serum HDL [9]: 1.31 ± 0.08^a mmol/L
Serum LDL [9]: 0.59 ± 0.04^a mmol/L
Serum TC [9]: 1.12 ± 0.05^c mmol/L
Serum TG [9]: 0.52 ± 0.09^b mmol/L
ALT [10]: 58.17 ± 4.52 U/L
AST [10]: 138.83 ± 8.33 U/L
reduction of serum MDA level compared to DC group [11]: about 36.45%
increase of serum GSH level compared to DC group ([11]; not significant): about 18.94%
IL-1β [12]: 570.67 ± 31.71^b pg/ml
IL-6 [12]: 123.06 ± 10.18^b pg/ml
TNF-α [12]: 70.10 ± 4.00^b pg/ml
LG (liver glycogen) [13]: 11.55 ± 1.82 mg/g tissue
